Reference: patent US20220273703A1, “NRF2 ACTIVATION FOR TREATMENT OF NEPHROGENIC DIABETES INSIPIDUS” (University Of Pittsburgh-Of The Commonwealth System Of …, priority 2019, published 2022)
Like-named read-outs stand apart in the source and are kept apart here. Each block holds one molecule with its values, some of them ahead of it.

How the values were obtained:
Nrf2 [1] = assay: 10-nitro-9(E)-octadec-9-enoic acid in nephrogenic diabetes insipidus; details: in vivo
Description: The pharmacologic activation of Nrf2 with CDDO-Me provided motivation to evaluate the viability of 10-nitro-9(E)-octadec-9-enoic acid as an activator and potential API for treating or preventing NDI.

Nrf2 gene target NQO1 = assay: NQO1 expression (immunoblotting) in primary human renal cortical cells; type: cell-based
Method: Cell culture: Primary human distal tubule cells from human adult kidneys were isolated and cultured as previously described (Emlet et al., Am. J. Physiol.-Ren. Physiol. 312, (2017)). Confluent monolayers of cells were incubated with vehicle control, LiCl or CDDO-Im for 18 hr in serum-free hormonally defined media followed by preparation of lysates for immunoblotting.
(§1) Immunoblotting: Flash-frozen kidneys were homogenized in ice-cold Radio Immuno Precipitation Assay (RIPA) buffer containing protease and phosphatase inhibitor cocktails. Cells were treated as indicated. At time of collection, cells were washed 2× with cold PBS and lysates were prepared in 4° C. lysis buffer containing protease inhibitors. Protein was quantified by bicinchoninic acid (BCA) assay (Pierce) and sample containing 15-25 μg total cellular protein was loaded on 4-12% reducing Bis-Tris gel. Resolved proteins were transferred to 0.45 μm nitrocellulose membrane, blocked with 5% non-fat dry milk or 5% bovine serum albumin in TRIS® buffered saline (TBS)-0.1% Tween 20 for 1 hr. Membranes were incubated with primary antibody (1:1000 dilution) for 1 hr at room temperature or overnight at 4° C. Appropriate secondary antibody was applied at dilution of 1:5000 for 1 hr, membrane washed thrice in TBS-0.1% Tween-20 and membrane visualized with Clarity ECL chemiluminescence kit and ChemiDoc imager (Bio-Rad, Hercules, Calif.).
To establish a murine model of NDI, mice were administered control chow diet or 0.17% LiCl diet for 0-7 days (FIG. 1A) during which body weight, food intake (Suppl. FIG. 1) and water intake (FIG. 1B) were monitored. […]
To further test the distribution of Nrf2 and sensitivity to activation in a translational model, NQO1 expression was determined in a cell culture model systems of primary human renal cortical cells representing proximal tubule (PT) and distal tubule (DT) cell populations (Emlet et al., Am. J. Physiol. - Ren. Physiol. 312, (2017)) in the presence or absence of the Nrf2 activator CDDO-Imidazolide (CDDO-Im) (FIG. 5C-F). […]

Nrf2 [2] = assay: CDDO-Me in the Li-NDI mouse model; type: in vivo, mice; details: 5 mg/kg I.P., q.d.
Method: FIGS. 9A-9J. Pharmacologic activation of Nrf2 using CDDO-Me protects against polydipsia in Li-NDI via an AQP2-independent mechanism. (A) Schematic of model of Li-NDI. All mice received normal chow for 0-3d and were randomized to vehicle or CDDO-Me (5 mg/kg I.P., q.d.). At day 3, mice were randomized to either normal chow or 0.17% LiC1 diet. (B) Animal weights as a function of time, normalized to starting weight. (C) 24 hr food intake normalized to body weight. (D) Changes in water intake as a % of baseline expressed as mean±SE (n=6-8 per group). *(p<0.05) denotes statistical significance compared to LiC1-Vehicle by two-way ANOVA with Dunnet correction for multiple comparisons. (E) Immunoblotting of whole-kidney lysates for glycosylated ( ? , 45 kDa) and non-glycosylated ( ? , 29 kDa) AQP2 and NQO1; (F-H) Densitometry showing individual values, mean±SE with statistical analysis by one-way ANOVA with Tukey correction for multiple comparisons. (I) Plasma Li concentration. […]
Water and Urine: Mice and food were weighed daily. Water was supplied in 50 mL conical with sipper tube as described (bio-protocol.org/e1822), and daily water intake was determined by weight. Spot urine was collected after spontaneous voiding on plastic wrap and urine osmolality measured in technical duplicate with Wescor 5500® Vapor Pressure Osmometer using lOuL urine and the average value reported each mouse. […]

[3] = Dietary Li administration in Keap1f/f mice (constitutive Nrf2 activation); type: in vivo
Method: Water and Urine: Mice and food were weighed daily. Water was supplied in 50 mL conical with sipper tube as described (bio-protocol.org/e1822), and daily water intake was determined by weight. Spot urine was collected after spontaneous voiding on plastic wrap and urine osmolality measured in technical duplicate with Wescor 5500® Vapor Pressure Osmometer using lOuL urine and the average value reported each mouse.
as §1
Consequently, Li was administered to mice with constitutive pharmacomimetic Nrf2 activation (Keap1^f/f) to test whether Nrf2 and Li induced NDI via synergistic or additive mechanisms (FIG. 3A). To our surprise, instead of exacerbating the renal toxicity of Li, activation of Nrf2 signaling conferred significant protective effects.
The duration of Li therapy in humans is on the order of months to decades. An experiment was done to evaluate if Nrf2 hyperactivation conferred long-term protection from the development of Li-NDI. 6-8 week old WT and Keap1^flox/flox mice were randomized to control or 0.17% LiCl diet for 8 months.

[4] = Nrf2-/- mice

Structure (SMILES): CCCCCCCC/C(=C\CCCCCCCC(=O)O)[N+](=O)[O-] [10-nitro-9(E)-octadec-9-enoic acid]
symptoms of nephrogenic diabetes insipidus (Nrf2 [1]): reduced symptoms of nephrogenic diabetes insipidus

Structure (SMILES): CC1(C)CC[C@]2(C(=O)n3ccnc3)CC[C@]3(C)[C@H](C(=O)C=C4[C@@]5(C)C=C(C#N)C(=O)C(C)(C)[C@@H]5CC[C@]43C)[C@@H]2C1 [CDDO-Im, CDDO-Imidazolide]
NQO1 expression (Nrf2 gene target NQO1; CD-10/CD-13 positive HAK cells (proximal tubule), exposure to CDDO-Im): did not further increase | elevation in NQO1 (Nrf2 gene target NQO1; MUC1 positive cells (distal tubule), exposure to CDDO-Im): 3 fold

food consumption (Nrf2 [2]; with LiCl diet): without impacting
Structure (SMILES): COC(=O)[C@]12CCC(C)(C)C[C@H]1[C@H]1C(=O)C=C3[C@@]4(C)C=C(C#N)C(=O)C(C)(C)[C@@H]4CC[C@@]3(C)[C@]1(C)CC2 [CDDO-Me, Bardoxolone methyl]
increase of renal NQO1 expression (Nrf2 [2]; whole-kidney lysates): 2- to 3 fold

Structure (SMILES): [Cl-].[Li+] [LiCl]
renal protein expression of Nrf2 gene target NQO1 (0.17% LiCl diet, 7 days): without impacting | Water intake (0.17% LiCl diet, after 4 days): significantly increased | renal expression of AQP2 (0.17% LiCl diet, by 7 days): significantly downregulated | urine osmolality (hyposthenuria) (0.17% LiCl diet, day 7, spot urine): significant hyposthenuria | Expression of NQO1 in kidney (Example 4, Li treatment): not affected | glycosylated and non-glycosylated AQP2 isoforms in kidney (Example 4, both WT and Keap1f/f groups): significantly reduced | volume status when water intake clamped to baseline intake (LiCl diet, baseline-clamped water): significant volume depletion with hypernatremia and polycythemia | renal expression of CA-II (WT animals): reduced | renal COX-1 expression (WT mice): down-regulate | renal COX-2 expression (WT mice): down-regulate | spot urine osmolality (WT-Li cohort, day 13): 359+/−192 mOsm/kg | reduction in body mass (WT-Li mice, Example 4): ~5% | plasma Li+ (both WT and Keap1f/f groups on LiCl diet): equivalently elevated | total expression of NCC (tNCC) (kidney lysates, WT-Li cohort): unchanged | Activating phosphorylation of NCC at threonine 53 (pNCC, T53) (kidney lysates, both genotypes): reduced | water intake (polydipsia) ([3]; Keap1f/f mice receiving Li): normodipsic | body mass change vs control diet ([3]; Keap1f/f mice receiving LiCl): no change | urine osmolality ([3]; Keap1f/f-Li cohort, day 13): 758+/−703 mOsm/kg | average daily water intake compared to WT-Ctrl ([3]; Keap1flox/flox-Li mice, 0.17% LiCl diet): no significant increase | total expression of NCC (tNCC) ([3]; kidney lysates, Keap1f/f-Li cohort): significantly reduced | NQO1 expression (Nrf2 gene target NQO1; Li 10 mM and 50 mM, Mucin 1-enriched distal tubule cells and CD10/CD13 proximal tubule cells): No increase | body weight ([4]; Li diet 6 days): slightly reduced | Food intake ([4]; first 3 days of LiCl diet): modestly suppressed | urine osmolality ([4]; spot urine, day 11): 176+/−43 mOsm/kg
